Where “and” joins values, the source holds several entries; their conditions need not be identical. Equal entries are not always repeated. Inconclusive results and toxic doses are left out.
System: CD2F1 mice, L1210 leukemia ip, survival T/C
Experiment: NCI In Vivo Anticancer Drug Screen. Data for tumor model L1210 Leukemia (intraperitoneal) in CD2F1 (CDF1) mice
Details: higher = longer survival
Experimental: The antitumor activity of compounds was measured in mice bearing transplantable tumors. Survival or tumor size were measured and the results are expressed as the measurement made in the treated group (T) divided by the measurement made in the vehicle treated control group (C). The tumor model used in this assay is L1210 Leukemia (intraperitoneal) in CD2F1 (CDF1) mice

[1] = endpoint: mean survival time, dose: 100.0 mg/kg/injection, schedule: Q04DX003 (ip), vehicle: saline with Tween-80
[2] = endpoint: mean survival time, dose: 200.0 mg/kg/injection, schedule: Q04DX003 (ip), vehicle: saline with Tween-80
[3] = endpoint: mean survival time, dose: 400.0 mg/kg/injection, schedule: Q04DX003 (ip), vehicle: saline with Tween-80
[4] = endpoint: mean survival time, dose: 100.0 mg/kg/injection, schedule: Q01DX001 (ip), vehicle: saline with Tween-80
[5] = endpoint: mean survival time, dose: 200.0 mg/kg/injection, schedule: Q01DX001 (ip), vehicle: saline with Tween-80
[6] = endpoint: mean survival time, dose: 400.0 mg/kg/injection, schedule: Q01DX001 (ip), vehicle: saline with Tween-80
[7] = endpoint: mean survival time, dose: 100.0 mg/kg/injection, schedule: Q01DX009 (ip), vehicle: saline with Tween-80
[8] = endpoint: mean survival time, dose: 200.0 mg/kg/injection, schedule: Q01DX009 (ip), vehicle: saline with Tween-80
[9] = endpoint: mean survival time, dose: 400.0 mg/kg/injection, schedule: Q01DX009 (ip), vehicle: saline with Tween-80
[10] = endpoint: mean survival time, dose: 10.0 mg/kg/injection, schedule: Q04DX003 (ip), vehicle: saline
[11] = endpoint: mean survival time, dose: 20.0 mg/kg/injection, schedule: Q04DX003 (ip), vehicle: saline
[12] = endpoint: mean survival time, dose: 100.0 mg/kg/injection, schedule: Q04DX002 (ip), vehicle: saline with Tween-80

## CCOC(=O)C(C(C)=O)C(=O)/C=C/c1ccccc1 (centres undefined)
[1]
  T/C: 98 % of control
[2]
  T/C: 103 % of control
[3]
  T/C: 97 % of control

## Cc1ccccc1Nc1cc(=O)[nH]c(=O)[nH]1
[4]
  T/C: 95 % of control
[5]
  T/C: 95 % of control
[6]
  T/C: 94 % of control

## COC(=O)CCCCCCCCO
[7]
  T/C: 109 % of control
[1]
  T/C: 97 % of control
[8]
  T/C: 101 % of control
[2]
  T/C: 95 % of control
[9]
  T/C: 104 % of control
[3]
  T/C: 90 % of control

## COC(=O)COc1ccccc1Cl
[4]
  T/C: 102 % of control
[5]
  T/C: 102 % of control
[6]
  T/C: 104 % of control

## Cc1cc(-n2cccc2)no1
[7]
  T/C: 98 % of control
[8]
  T/C: 107 % of control
[9]
  T/C: 94 % of control

## CCCCNS(=O)(=O)c1cn(CCCC)c(=O)[nH]c1=O
endpoint: mean survival time, dose: 37.5 mg/kg/injection, schedule: Q01DX001 (ip), vehicle: saline with Tween-80
  T/C: 100 % of control
endpoint: mean survival time, dose: 150.0 mg/kg/injection, schedule: Q01DX001 (ip), vehicle: saline with Tween-80
  T/C: 96 % of control
endpoint: mean survival time, dose: 175.0 mg/kg/injection, schedule: Q01DX001 (ip), vehicle: saline with Tween-80
  T/C: 100 % of control

## CC1CCC(C)C([N+](C)(C)C)C1 (centres undefined)
endpoint: mean survival time, dose: 12.5 mg/kg/injection, schedule: Q01DX001 (ip), vehicle: saline
  T/C: 102 % of control
endpoint: mean survival time, dose: 25.0 mg/kg/injection, schedule: Q01DX001 (ip), vehicle: saline
  T/C: 110 % of control
endpoint: mean survival time, dose: 50.0 mg/kg/injection, schedule: Q01DX001 (ip), vehicle: saline
  T/C: 100 % of control

## O=C1C=CC(=O)N1c1ccc(Cl)cc1Br
endpoint: mean survival time, dose: 5.0 mg/kg/injection, schedule: Q04DX003 (ip), vehicle: saline with Tween-80
  T/C: 95 % of control
endpoint: mean survival time, dose: 10.0 mg/kg/injection, schedule: Q04DX003 (ip), vehicle: saline with Tween-80
  T/C: 89 % of control
endpoint: mean survival time, dose: 20.0 mg/kg/injection, schedule: Q04DX003 (ip), vehicle: saline with Tween-80
  T/C: 92 % of control

## COc1cc(Cl)ccc1NC(=O)Nc1c(C)n(C)n(-c2ccccc2)c1=O
endpoint: mean survival time, dose: 50.0 mg/kg/injection, schedule: Q01DX009 (ip), vehicle: saline with Tween-80
  T/C: 90 % of control
[7]
  T/C: 90 % of control

## CN1CCN(C(=O)NCCCl)CC1
endpoint: mean survival time, dose: 5.0 mg/kg/injection, schedule: Q01DX009 (ip), vehicle: saline
  T/C: 107 % of control
endpoint: mean survival time, dose: 5.0 mg/kg/injection, schedule: Q04DX003 (ip), vehicle: saline
  T/C: 93 % of control
endpoint: mean survival time, dose: 10.0 mg/kg/injection, schedule: Q01DX009 (ip), vehicle: saline
  T/C: 94 % of control
[10]
  T/C: 92 % of control
[11]
  T/C: 92 % of control

## COc1ccccc1NC(C)=O
[7]
  T/C: 96 % of control
[1]
  T/C: 101 % of control
[8]
  T/C: 98 % of control
[2]
  T/C: 96 % of control
[9]
  T/C: 96 % of control
[3]
  T/C: 101 % of control

## c1ccc(C2NC2c2ccccc2)cc1 (centres undefined)
endpoint: median survival time, dose: 50.0 mg/kg/injection, schedule: Q04DX002 (ip), vehicle: saline with Tween-80
  T/C: 100 % of control
endpoint: median survival time, dose: 100.0 mg/kg/injection, schedule: Q04DX002 (ip), vehicle: saline with Tween-80
  T/C: 100 % of control
endpoint: median survival time, dose: 200.0 mg/kg/injection, schedule: Q04DX002 (ip), vehicle: saline with Tween-80
  T/C: 100 % of control
endpoint: median survival time, dose: 400.0 mg/kg/injection, schedule: Q04DX002 (ip), vehicle: saline with Tween-80
  T/C: 100 % of control

## CCOC(=O)Nc1cc(NCCc2ccccc2)c([N+](=O)[O-])c(N)n1
endpoint: mean survival time, dose: 100.0 mg/kg/injection, schedule: Q01DX001 (ip), vehicle: Klucel (hydroxypropylcellulose) (HPC)
  T/C: 91 % of control
endpoint: mean survival time, dose: 200.0 mg/kg/injection, schedule: Q01DX001 (ip), vehicle: Klucel (hydroxypropylcellulose) (HPC)
  T/C: 94 % of control
endpoint: mean survival time, dose: 400.0 mg/kg/injection, schedule: Q01DX001 (ip), vehicle: Klucel (hydroxypropylcellulose) (HPC)
  T/C: 86 % of control

## COC(=O)c1cccc(C)n1
[7]
  T/C: 108 % of control
[8]
  T/C: 94 % of control
[9]
  T/C: 94 % of control

## CC(=O)Nc1ccccc1-c1ccccc1
[7]
  T/C: 96 % of control
[1]
  T/C: 92 % of control
[8]
  T/C: 104 % of control
[2]
  T/C: 95 % of control
[9]
  T/C: 103 % of control
[3]
  T/C: 94 % of control

## Cc1ccc(NN=O)nc1
endpoint: median survival time, dose: 1.5 mg/kg/injection, schedule: Q01DX009 (ip), vehicle: water
  T/C: 110 % of control
endpoint: median survival time, dose: 1.56 mg/kg/injection, schedule: Q01DX009 (ip), vehicle: water
  T/C: 114 % of control
endpoint: median survival time, dose: 3.0 mg/kg/injection, schedule: Q01DX009 (ip), vehicle: water
  T/C: 114 % of control
endpoint: median survival time, dose: 3.12 mg/kg/injection, schedule: Q01DX009 (ip), vehicle: water
  T/C: 123 % of control
endpoint: median survival time, dose: 12.0 mg/kg/injection, schedule: Q01DX009 (ip), vehicle: water
  T/C: 156 % of control
endpoint: median survival time, dose: 24.0 mg/kg/injection, schedule: Q01DX009 (ip), vehicle: water
  T/C: 115 % of control and 106 % of control

## Cn1c2ccccc2c(=O)c2ccc(Cl)cc21
[1]
  T/C: 95 % of control
[2]
  T/C: 96 % of control
[3]
  T/C: 96 % of control

## Cc1c([N+](=O)[O-])cc(C(C)(C)C)c(OS(C)(=O)=O)c1[N+](=O)[O-]
[12]
  T/C: 105 % of control

## CC1=CC(=O)C2C(C)(C)CCCC2(C)C1(O)CCc1ccoc1 (centres undefined)
[12]
  T/C: 110 % of control
endpoint: mean survival time, dose: 200.0 mg/kg/injection, schedule: Q04DX002 (ip), vehicle: saline with Tween-80
  T/C: 103 % of control
endpoint: mean survival time, dose: 400.0 mg/kg/injection, schedule: Q04DX002 (ip), vehicle: saline with Tween-80
  T/C: 107 % of control

## Cc1oc(N)c(C(N)=O)c1C
endpoint: mean survival time, dose: 100.0 mg/kg/injection, schedule: Q01DX009 (ip), vehicle: saline sonified
  T/C: 103 % of control
[1]
  T/C: 100 % of control
endpoint: mean survival time, dose: 200.0 mg/kg/injection, schedule: Q01DX009 (ip), vehicle: saline sonified
  T/C: 93 % of control
[2]
  T/C: 100 % of control
endpoint: mean survival time, dose: 400.0 mg/kg/injection, schedule: Q01DX009 (ip), vehicle: saline sonified
  T/C: 92 % of control
[3]
  T/C: 94 % of control

## [Au].[NH-]C1CCCCC1[NH-].[NH-]C1CCCCC1[NH-] (centres undefined)
endpoint: mean survival time, dose: 3.13 mg/kg/injection, schedule: Q04DX003 (ip), vehicle: saline
  T/C: 97 % of control
endpoint: mean survival time, dose: 6.25 mg/kg/injection, schedule: Q04DX003 (ip), vehicle: saline
  T/C: 96 % of control
endpoint: mean survival time, dose: 12.5 mg/kg/injection, schedule: Q04DX003 (ip), vehicle: saline
  T/C: 97 % of control
endpoint: mean survival time, dose: 25.0 mg/kg/injection, schedule: Q04DX003 (ip), vehicle: saline
  T/C: 100 % of control

## CC(=O)OCC1OC(n2ncc3c(N4CC4)ncnc32)C(OC(C)=O)C1OC(C)=O (centres undefined)
endpoint: mean survival time, dose: 25.0 mg/kg/injection, schedule: Q01DX005 (ip), vehicle: distilled water + Tween-80
  T/C: 97 % of control
endpoint: mean survival time, dose: 50.0 mg/kg/injection, schedule: Q01DX005 (ip), vehicle: distilled water + Tween-80
  T/C: 99 % of control
endpoint: mean survival time, dose: 100.0 mg/kg/injection, schedule: Q01DX005 (ip), vehicle: distilled water + Tween-80
  T/C: 101 % of control
endpoint: mean survival time, dose: 200.0 mg/kg/injection, schedule: Q01DX005 (ip), vehicle: distilled water + Tween-80
  T/C: 100 % of control
endpoint: mean survival time, dose: 400.0 mg/kg/injection, schedule: Q01DX005 (ip), vehicle: distilled water + Tween-80
  T/C: 97 % of control

## CC(=O)OC1CCC2(C)C(CCC3C2CCC2(C)C3CC3OC(CCC(C)O)C(C)C32)C1 (centres undefined)
[12]
  T/C: 86 % of control

## NCCC(O)C(=O)NC1CC(N)C(OC2OC(CN)C(O)C(O)C2O)C(O)C1OC1OC(CO)C(O)C(N)C1O (centres undefined)
[10]
  T/C: 95 % of control
[11]
  T/C: 90 % of control
endpoint: mean survival time, dose: 40.0 mg/kg/injection, schedule: Q04DX003 (ip), vehicle: saline
  T/C: 93 % of control

## O=[N+]([O-])c1cccc(/C=C/C=C/c2ccc(Cl)c(S(=O)(=O)F)c2)c1
[7]
  T/C: 100 % of control
[1]
  T/C: 100 % of control
[8]
  T/C: 94 % of control
[2]
  T/C: 88 % of control
[9]
  T/C: 97 % of control
[3]
  T/C: 90 % of control

Source: PubChem BioAssay AID256 (DTP/NCI, 2004)
